Each structure is given as a SMILES string. Where a SMILES comes first, the peptide text is derived from it.

A word on the logP: it is the decadic logarithm of the partition coefficient of the neutral form, usually between octanol and water. Higher therefore signals higher lipophilicity. Molecule `CCNc1nc(SC)nc(C(Cl)(Cl)Cl)n1` displayed a logP of 3.87.
For `NC(=O)COc1cccc(Cc2cnc(N)nc2N)c1` the value was 0.28; for `NC(=O)c1ccccc1N=NN1CCC1`, 2.91; for `CCOC(=O)C(CC)C(CO)Cc1cncn1C` (stereo unspecified), 0.73.
For `Cc1cccc(C)c1NC(=O)c1ccc(CN2CCCC2)cc1` the value was 3.14; for `COC1CC(OC2CCC3(C=O)C4CCC5(C)C(C6=CC(=O)OC6)CCC5(O)C4CCC3(O)C2)OCC1O` (stereo unspecified), 0.64; for `Cc1c(O)c(=O)ccn1-c1ccccc1`, 1.12.
For `CC1(C)COC(Cn2cncn2)(c2ccc(-n3ccnc3)cc2Cl)OC1` the value was 2.26; for `CC(C)(C)C(=O)OCOC(=O)C1=C(CSc2nncs2)CSC2C(NC(=O)Cn3cnnn3)C(=O)N12` (stereo unspecified), 1.45.
`Clc1ccc(-c2ccccc2)c(Cl)c1Cl` yielded a logP of 5.86.
For `C#CCOc1c(Cl)cc(NC=NOc2ccc(C)cc2)cc1Cl` the value was 4.8.
Molecule `ClC1CC(Cl)C(Cl)CC1Cl` (stereo unspecified) returned a logP of 2.82.
The value for `CN1C(=O)CN=C(c2ccccc2Cl)c2cc([N+](=O)[O-])ccc21` was 2.56; that for `COC(O)Cn1c(Br)cnc1[N+](=O)[O-]` (stereo unspecified) was 0.16.
The value for `CCC(C)C(NC(=O)C(CC(C)C)NC(C)=O)C(=O)NC(CCC(=O)O)C(N)=O` (stereo not drawn) (Ac-Leu-Ile-Glu-NH2; configuration not given here) was 0.07.
In turn, `CCCN(C=Nc1ccn(C2OC(CO)C(O)C2O)c(=O)n1)CCC` (stereo unspecified) had a logP of 0.24.
The value for `Cc1n[nH]c(C(=O)N2CCCCC2)c1[N+](=O)[O-]` was 0.79; that for `CCN(CC)N=Nc1ccccc1C(N)=O` was 2.96; that for `CC(=O)Nc1ncnc2c1ncn2C1CC(O)C(CO)O1` (stereo unspecified) was -0.19.
For `O=C(O)C(Cc1ccc(F)cc1)n1cccc1` (stereo unspecified) the value was 2.04.
Molecule `O=[N+]([O-])c1nccn1COC(CO)C(O)CO` (stereo unspecified) displayed a logP of -1.47.
For the molecule `Cc1ncnc2c1ncn2C1CCC(CO)O1` (stereo unspecified), the logP is -0.12.
For `CC(=O)OCC(O)Cn1ccnc1[N+](=O)[O-]` (stereo unspecified) the value was -0.37; for `O=[N+]([O-])c1c(Cl)c(Cl)cc(Cl)c1Cl`, 4.38.
For `CN1C=CCC1c1cccnc1` (stereo unspecified) the value was 1.47; for `CC(=O)NC(CC(=O)O)C(=O)NC(Cc1ccccc1)C(=O)NC(CC(C)C)C(N)=O` (stereo not drawn) (Ac-Asp-Phe-Leu-NH2; configuration not given here), 0.4.
With `CCCn1c(=O)c2[nH]c(-c3ccc(S(=O)(=O)NCCN(C)C)cc3)nc2n(CCC)c1=O`, the logP is 3.32.
For `O=[N+]([O-])c1ncn(CC(F)(F)CO)n1` the value was -0.21; for `CCCCCOc1ccccc1NC(=O)OCCN1CCCCC1`, 4.97.
The value for `CCc1ccc(OCc2ccccc2CCCN2CCC(O)CC2)cc1` was 3.75; that for `CC(=O)Nc1c(I)c(C(=O)NC(CO)CO)c(I)c(C(=O)NC(CO)CO)c1I` was -2.27.
Consider `CN1CCC(=C2c3ccccc3CCc3cccnc32)CC1`, for which the logP came to 3.59.
`O=C(O)c1c(Br)cccc1Br`: the logP amounted to 3.58.
On to `O=C(O)CCCCC(S)CCS` (stereo unspecified), for which the logP was 2.41.
The value for `C#CCOc1c(Cl)cc(NC=NOC(C)CC)cc1Cl` (stereo unspecified) was 4.2; that for `CC1CC2C3CCC4=CC(=O)C=CC4(C)C3(F)C(O)CC2(C)C1(O)C(=O)NCCc1ccccc1` (stereo unspecified) was 3.66.
`COc1cccc2c1C(=O)c1c(O)c3c(c(O)c1C2=O)CC(O)(C(O)CO)CC3OC1CC(N2CCOCC2C#N)C(O)C(C)O1` (stereo unspecified) yielded a logP of 1.56.
In turn, `C#CCOc1c(Cl)cc(NC=NOCCCl)cc1Cl` yielded a logP of 3.7.
For `O=C(NCCCCO)C(F)(F)Cn1ccnc1[N+](=O)[O-]` the value was -0.29.
For `Cc1ccc(C)c(Cl)c1` the value was 3.86.
The value for `CN(C)CCC[N+]1([O-])c2ccccc2Sc2ccccc21` was 1.9; that for `CCN(CC)Cc1cccc(C(=O)Nc2c(C)cccc2C)c1` was 3.09.
Consider `CNC(=NC#N)NCCCCc1ncccc1OC`, for which the logP amounted to 1.5.
Molecule `CCC(CC)C(=O)NS(=O)(=O)c1ccc(C(F)(F)F)cc1N` came in with a logP of 3.04.
For `O=C1C(Br)=C(N2CC2)C(=O)C(Br)=C1N1CC1` the value was 2.03; for `O=c1nc(N=CN2CCCCC2)ccn1C1OC(CO)C(O)C1O` (stereo unspecified), -0.66; for `C#CCOc1c(Cl)cc(NC=NOCOCC)cc1Cl`, 3.5.
For `CCCC(=O)OCn1ncc2c(=O)[nH]cnc21` the value was 0.6.
The value for `CCOC(CNC(=O)C1(O)C(C)CC2C3CCC4=CC(=O)C=CC4(C)C3(F)C(O)CC21C)OCC` (stereo unspecified) was 2.65.
Molecule `COc1cc(Cc2cnc(N)nc2N)cc(Br)c1OC` returned a logP of 2.23.
The value for `CCC1CC(C(=O)NC(C(C)O)C2OC(SC)C(O)C(O)C2O)N(C)C1` (stereo unspecified) was -0.4; that for `CC(C)c1cccc(C(C)C)c1N` was 3.18; that for `Clc1cc(Cl)c2oc3c(Cl)cc(Cl)c(Cl)c3c2c1` was 6.34.
`Cc1ccc(Cl)c(Cl)c1` had a logP of 3.95.
For `CC(C)OC(=O)n1cc(F)c(=O)[nH]c1=O` the value was 0.2; for `c1ccc(Cn2cccc2)cc1`, 2.71; for `O=c1[nH]c(Nc2ccccc2)nc2c1ncn2CCO`, 0.83.
For `NC(=O)CC(CC(=O)O)c1ccc(Br)cc1` (stereo unspecified) the value was 1.12.
For `O=C(NCCCO)C(F)(F)Cn1ccnc1[N+](=O)[O-]` the value was -0.64; for `C#CCNC(=O)C1(O)C(C)CC2C3CCC4=CC(=O)C=CC4(C)C3(F)C(O)CC21C` (stereo unspecified), 2.
On to `Cc1cn(C2CC(N=[N+]=[N-])C(COC(=O)CCNC(=O)C34CC5CC(CC(C5)C3)C4)O2)c(=O)[nH]c1=O` (stereo unspecified), for which the logP worked out at 2.14.
The value for `CN(C)N=Nc1ccc(CC(=O)O)cc1` was 1.38.
`Cc1ccc(OCc2ccccc2CCCN2CCC(O)CC2)cc1`: the logP stood at 3.5.
For the molecule `CC1(C)SC2C(NC(=O)c3c(-c4c(F)cccc4Cl)noc3CO)C(=O)N2C1C(=O)O` (stereo unspecified), the logP is 2.23.
For `CC(C)(C)C(=O)C(C#N)=NNc1ccc(Cl)cc1C(F)(F)F` the value was 5.67; for `CCN(CC)CCSC(=NO)c1nonc1C`, 1.4.
`COc1ccc2cc(C(C)C(=O)OCC(N)=O)ccc2c1` (stereo unspecified): the logP was 2.06.
Molecule `O=C1CC(Sc2ccncc2)N1` (stereo unspecified) returned a logP of 0.61.
For `CC1(C)CCCC(C)(C)N1[O]` the value was 1.85; for `CCOC(=O)Cn1cnc([N+](=O)[O-])c1I`, 0.57.
`Cc1nc([N+](=O)[O-])cn1C` gave a logP of -0.24.
`Nc1ccc(Oc2ccc(N)cc2)cc1` displayed a logP of 1.36.
The value for `CCCCC(=O)OCCOCn1cnc2c(=O)[nH]c(N)nc21` was 0.37; that for `Cn1c([N+](=O)[O-])cnc1COc1ccc(Cl)cc1` was 1.8; that for `CN1C=CCC(C(=O)OC2CCC(NC(=O)N(CCCl)N=O)CC2)=C1` (stereo unspecified) was 2.53.
The value for `CC(=O)C12OC(C)(c3ccc(F)cc3)OC1CC1C3CCC4=CC(=O)CCC4(C)C3CCC12C` (stereo unspecified) was 5.7; that for `CSCCNC(=O)C(F)(F)Cn1cnc([N+](=O)[O-])n1` was 0.41; that for `CC1=C(C(=O)O)N2C(=O)C(NC(=O)C(OC(=O)C(C)C)c3ccccc3)C2SC1` (stereo unspecified) was 2.05.
On to `Cc1cc(Cl)ccc1Cl`, for which the logP was 3.97.
The value for `CSC(=NOC(=O)N(C)COC1OC(C(=O)O)C(O)C(O)C1O)C(=O)N(C)C` (stereo unspecified) was -2.52.
Molecule `CCOC(=O)c1cc(S(N)(=O)=O)c(Cl)cc1NCc1ccco1` returned a logP of 2.67.
For `CNC(Cc1ccccc1)C(=O)O` (stereo unspecified), the logP is -1.53.
For `Clc1cc2c(cc1Cl)Oc1c(Cl)ccc(Cl)c1O2`, the logP stood at 6.39.
For `CC12C=CC(=O)C=C1CCC1C2C(O)CC2(C)C1CCC2(O)C(=O)COC1OC(CO)C(OC2OC(CO)C(O)C(O)C2O)C(O)C1O` (stereo unspecified) the value was -0.56; for `NC(=O)C(=Cc1ccc([N+](=O)[O-])o1)c1ccco1`, 0.15.
The value for `C#CCOc1c(Cl)cc(NC=NOCOC)cc1Cl` was 3.2.
For `CC1CC2C3CCC4=CC(=O)C=CC4(C)C3(F)C(O)CC2(C)C1(O)C(=O)NCCCl` (stereo unspecified) the value was 2.73; for `COc1cccc(C(=O)NP(=O)(N2CC2)N2CC2)c1`, 0.86.
Take `CNC(=O)OCc1ccc(Cl)cc1`: the logP was 2.42.
For `CC(C)(C)C(=O)OCCOCn1cnc2c(=O)[nH]c(N)nc21` the value was 0.3; for `O=[N+]([O-])c1nccn1CCC(O)CO` (stereo unspecified), -0.9.
In turn, `CC1=CCC2C(C1)c1c(O)cc(NS(C)(=O)=O)cc1OC2(C)C` (stereo unspecified) had a logP of 3.12.
For `O=[N+]([O-])C=C1NCCN1Cc1ccc(Cl)cc1` the value was 0.99; for `COc1cccc(OCc2ccccc2CCCN2CCC(O)CC2)c1`, 3.35; for `CC(C)(C)n1ccnc1C=NO`, 0.85.
For `O=C(Cc1ccccc1)NCCNCC(O)COCc1ccccc1` (stereo unspecified) the value was 1.45.
For `O=C(CCn1ccnc1[N+](=O)[O-])NCCO` the value was -1.08; for `CC(=O)C1(O)C(C)CC2C3CCC4=CC(=O)C=CC4(C)C3(F)C(O)CC21C` (stereo unspecified), 2.35; for `CCC(C)C(NC(=O)C(CC(=O)O)NC(C)=O)C(=O)NC(Cc1ccccc1)C(N)=O` (stereo unspecified), 0.61.
For `C#CCOc1c(Cl)cc(NC=NOCC)cc1Cl`, the logP turned out to be 3.6.
For `C#CCOc1c(Cl)cc(NC=NOCCOCC)cc1Cl`, the logP is 3.7.
The value for `COC(=O)c1ccc2[nH]ccc2c1` was 2.58.
In the case of `CN(CC1(C)CCCO1)S(=O)(=O)c1ccc(Cl)c(S(N)(=O)=O)c1` (stereo unspecified), the logP turned out to be 1.54.
For `N#CC(C#N)=NNc1ccccc1Br` the value was 3.11; for `c1ccc2c(c1)Cc1ccccc1S2`, 3.86.
The value for `Clc1cc2c(c(Cl)c1Cl)Oc1ccc(Cl)c(Cl)c1O2` was 6.74; that for `Cc1c(Cl)c(Cl)c(Cl)c(Cl)c1Cl` was 5.62; that for `FC(F)(F)C(F)(F)c1ccccc1` was 3.36.
In turn, `CCOc1cccc(NC(=O)OCCN2CCOCC2)c1` yielded a logP of 2.5.
For `Clc1cc2oc3c(Cl)cc(Cl)c(Cl)c3c2cc1Cl` the value was 6.26.
The value for `CCOC(=O)Oc1cccc(C2(C(=O)CC)CCN(C)CC2)c1` was 1.29.
